Data on ten compounds can be found in patent US12570612B2, “Substituted nitrogen heterocyclic compound and anesthetic effect thereof” (priority 2019, dated 2026).

The test system of data set [1] is Sprague-Dawley rats. Description: animal or person. As to conditions: for ED50: LORR in rats, tail vein, brackets = 95% confidence limit; for Approximate therapeutic index / Minimal lethal dose: rats. How it is done:
(§1) Adult male Sprague-Dawley rats (250-300 g) were selected for the experiment. […] The anesthesia effects of the compounds were assessed in rats using a LORR assay and a period >30 s was considered as an indicator of general anesthesia.

The subject of data set [2] is Sprague-Dawley rats. Description: Continuous infusion at 2 times the MIR for 1 hour, Group B compounds. In kind it is in vivo. The note with it: for Recovery time after stopping infusion: after 1 hour continuous infusion at 2 times the MIR; for Recovery time after stopping infusion / Onset time: rats; for Onset time: continuous tail vein infusion at 2 times the MIR, emulsion.

The test system of data set [3] is H295R cell line. Kind of data set: Adrenocortical function in vitro test: secretion of cortisol and corticosterone, Group B compounds. In kind it is cell-based. The note with it: H295R cells; for EC50: 0.1-10000 nM, HPLC-MS/MS.
For data set [4], the system named is Sprague-Dawley rats. Description: Pharmacological characteristics at equivalent doses (2ED50), Group A compounds. As to conditions: 2ED50, tail vein. In kind it is in vivo.
The test system of data set [5] is Sprague-Dawley rats. Description: animal or person. As to the method:
as §1

The subject of data set [6] is Sprague-Dawley rats. How it is done: Adult male Sprague-Dawley rats with body weight ranging from 250 to 300 gm were selected for continuous infusion test. […] Time to recovery of righting reflex from stopping infusion, and time to fully awake from stopping infusion were recorded.
The subject of data set [7] is H295R cell line. Kind of data set: Adrenocortical function in vitro test: secretion of cortisol and corticosterone, Group A compounds. The format is cell-based. As to conditions: H295 cells; for EC50: Homo sapiens, 0.1-10000 nM, HPLC-MS/MS.
Data set [8] concerns Sprague-Dawley rats. Description: Pharmacological effect and adverse reactions under the equivalent dose (2ED50), Group D compounds. In kind it is in vivo. An excerpt:
Evaluation index: onset time: from the completion of drug injection to the disappearance of forepaw righting reflex in rats; Duration of anesthesia: the time from the disappearance of rat forepaw righting reflex to the recovery of rat forepaw righting reflex; Recovery time of anesthesia: the time from the […] to complete recovery;

Data set [9] relates to Sprague-Dawley rats. Kind of data set: animal or person. The note with it: Rattus norvegicus; LORR, up and down method, tail vein, rats; class symbols; read-out: ED50. In kind it is in vivo. An excerpt: Evaluating indicator: The end point of anesthesia: the disappearance of forepaw righting reflex (lorr) was used as the end point of anesthesia; General anesthesia effect: the disappearance of forepaw righting reflex in rats lasting for 30 seconds is taken as the index of general anesthesia effect; Anesthesia recovery index: the recovery of rat forepaw righting reflex was used as the index of anesthesia recovery.

The mark [10] stands for this setting: continuous infusion 2 x MIR 1 hour, rats affected/rats.
[11] abbreviates: read-out: EC50 (Corticosterone).
Where [12] appears, read: equivalent dose (2 × ED50), number of rats of n = 8.
[13] abbreviates: Homo sapiens, NCI-H295R, read-out: EC50 (Corticosterone).
[14] abbreviates: Homo sapiens, NCI-H295R, read-out: EC50 (Cortisol).

A word on the ED50: it is the dose at which the effect has come halfway, by size or by number of responders. For orientation: EC50 means the concentration that produces a half-maximal response.

Values joined by “and” are separate entries in the source; they are usually repeats but may differ in a detail not shown here. Equal values may be shown once. “Also recorded” adds a separate entry of the source. Read-outs that look alike come from different tables or passages of the source. A value given as a limit tells only on which side of the number the result lay.

`C[C@H](c1ccccc1)n1nncc1C(=O)OC1CCC1` [Compound B6]: in [1], the ED50 result is “A (A indicates that the measured ED50 is in the range of 0.04-0.50 mg/kg (including 0.04 and 0.50 mg/kg))”; the Approximate therapeutic index was above 71; the Minimal lethal dose was above 10 mg/kg. In [2], the “Recovery time after stopping infusion” value fell in the range of 14 to 16 min and the Onset time was in the range of 4 to 6 min. Besides, in data set [2] (setting [10]), the “Types and incidence of adverse reactions: Tongue stretching” value (from here on “Types and incidence … Tongue stretching”) was “stretching(2/6)”; the “Types and incidence of adverse reactions: Tremor” value (shortened to “Types and incidence … Tremor”) is “Tremor(2/6), Tongue”. In addition, in data set [3], the “Corticosterone as an indicator to determine the presence of inhibition” value (“Corticosterone as an indicator … of inhibition” for short) worked out at 0 and the “Cortisol as an indicator to determine the presence of inhibition” value (“Cortisol as an indicator … of inhibition” for short) is given as 0. Moreover, the EC50 in data set [3] (setting [11]) is above 100 nM. In addition, in data set [3] (read-out: EC50 (Cortisol)), the EC50 was above 100 nM.
As to `C[C@H](c1ccccc1)n1nncc1C(=O)OC(C)(C)C` [Compound B12], in data set [1], the ED50 entry is “A (A indicates that the measured ED50 is in the range of 0.04-0.50 mg/kg (including 0.04 and 0.50 mg/kg))”; the Approximate therapeutic index was above 16; the Minimal lethal dose is on record as above 5 mg/kg. In addition, in [2], the “Recovery time after stopping infusion” value was 13 to 15 min and the Onset time was 5 to 6 min. The “Types and incidence … Tremor” value in data set [2] (setting [10]) is on record as “Tremor(3/6)”. Moreover, in data set [3], the “Corticosterone as an indicator … of inhibition” value is 0 and the “Cortisol as an indicator … of inhibition” value is 0. Besides, in data set [3] (setting [11]), the EC50 was above 1000 nM. The EC50 in data set [3] (read-out: EC50 (Cortisol)) was above 1000 nM.
In the case of `CCOC(=O)c1c(Br)nnn1[C@H](C)c1ccccc1` [Compound B118], in [1], the ED50 entry is listed as “C (C indicates that the measured ED50 is in the range of 1.00-2.00 mg/kg (excluding 1.00 mg/kg, including 2.00 mg/kg))”; the Approximate therapeutic index is given as above 12; the Minimal lethal dose is given as above 17 mg/kg. Moreover, in data set [2], the “Recovery time after stopping infusion” value was in the range of 13 to 15 min and the Onset time was in the range of 6 to 7 min. In data set [2] (setting [10]), the “Types and incidence … Tongue stretching” value was “stretching(4/6)”; the “Types and incidence … Tremor” value is reported as “Tremor(4/6), Tongue”. Also, in data set [3], the “Corticosterone as an indicator … of inhibition” value worked out at 0 and the “Cortisol as an indicator … of inhibition” value amounted to 0. In addition, the EC50 in data set [3] (setting [11]) was above 1000 nM. Moreover, the EC50 in data set [3] (read-out: EC50 (Cortisol)) is above 1000 nM.
`C=C=CC1(OC(=O)c2ccnn2[C@H](C)c2ccccc2)COC1` [Compound A24]: in data set [4], the Onset time is on record as 0.47 ± 0.09 min and the Righting reflex duration came to 1.47 ± 0.63 min. Further, the “Types and incidence of adverse reactions” value in data set [4] ((animals affected/animals)) is “Red and urine(8/8), Convulsions(5/ and 8), Hindlimb rigidity (2/8)”. In data set [5] (Rattus norvegicus), this compound returned an ED50 of 0.04 to 0.5 mg/kg. In [5] (rats), this compound came in with an Approximate therapeutic index above 31 and a Minimal lethal dose above 6 mg/kg. The “Recovery time after stopping infusion” value in [6] (LORR maintained for 1 hour, 2 times the MIR) lay within 8 to 12 min. In data set [6] (continuous infusion, 2 times the MIR), this compound gave an Onset time of 4 to 5 min. Also, in data set [6] (continuous infusion, (animals affected/animals)), the “Types and incidence of adverse reactions” value is on record as “Tremor(2/6), Tongue; also recorded: stretching(4/6)”. Also, in data set [7], the “Corticosterone as an indicator … of inhibition” value came out at 0 and the “Cortisol as an indicator … of inhibition” value is on record as 0. In [7] (setting [11]), the EC50 is above 1000 nM. Further, in data set [7] (read-out: EC50 (Cortisol)), the EC50 was above 1000 nM.
For the compound `CCOC(OC)(OC)C(=O)c1ccnn1[C@H](C)c1ccccc1` [Compound D3], in [8] (2ED50, tail vein, rats, n=8), the Righting reflex duration is 1.25 ± 0.27 min and the Sedation duration is on record as 6.26 ± 1.50 min. Further, the Onset time in data set [8] (2ED50, tail vein, rats, n=8, unit min) is below 1 min. Further, in data set [8] (setting [12]), the “Adverse reaction: Convulsions” value was 0; the “Adverse reaction: Cough, broken-winded” value worked out at 0; the “Adverse reaction: Euphoria” value was 0; the “Adverse reaction: Four limbs rigidity” value is given as 1. Further, in data set [8] (setting [12]), the “Adverse reaction: Red urine” value is on record as 8; the “Adverse reaction: Slower breathing, Tetany convulsion” value is 0; the “Adverse reaction: Systemic stiffness, Convulsions, Opisthotonus” value came to 0; the “Adverse reaction: Tongue stretching” value is given as 0. Further, the “Adverse reaction: Tremor” value in data set [8] (setting [12]) turned out to be 1. The 50% effective dose (ED50) in [9] lay in the range of 2 to 6 mg/kg.
Consider `CC(=O)C1=C(OC(=O)c2c(F)nnn2[C@H](C)c2ccccc2)CCCC1` [Compound B47], for which, in [1], the ED50 result was “C (C indicates that the measured ED50 is in the range of 1.00-2.00 mg/kg (excluding 1.00 mg/kg, including 2.00 mg/kg))”; the Approximate therapeutic index is given as above 9; the Minimal lethal dose is given as above 13 mg/kg. Also, in [2], the “Recovery time after stopping infusion” value is 7 to 15 min and the Onset time is 3 to 4 min. Further, in data set [2] (setting [10]), the “Types and incidence of adverse reactions: Forelimbrigidity” value is given as “Forelimbrigidity(1/6)”; the “Types and incidence … Tremor” value is on record as “Tremor(4/6),”. In [3], the “Corticosterone as an indicator … of inhibition” value is listed as 0 and the “Cortisol as an indicator … of inhibition” value is reported as 0. In [3] (setting [11]), the EC50 is above 100 nM. For the same compound, the EC50 in [3] (read-out: EC50 (Cortisol)) is above 100 nM.
On to `C[C@H](c1ccccc1)n1nnc(Cl)c1C(=O)SC1CCC1` [Compound B80], for which, in data set [1], the ED50 entry is recorded as “D (D indicates that the measured ED50 is in the range of 2.00-10.00 mg/kg (excluding 2.00 mg/kg, including 10.00 mg/kg))”; the Approximate therapeutic index was above 3; the Minimal lethal dose is reported as above 16 mg/kg. Moreover, in data set [2], the “Recovery time after stopping infusion” value was 12 to 16 min and the Onset time lay in the range of 3 to 5 min. Besides, the “Types and incidence … Tremor” value in data set [2] (setting [10]) is listed as “Tremor(5/6)”. For the same compound, in data set [3], the “Corticosterone as an indicator … of inhibition” value was 0 and the “Cortisol as an indicator … of inhibition” value amounted to 0. Moreover, in data set [3] (setting [11]), the EC50 was above 1000 nM. For the same compound, the EC50 in data set [3] (read-out: EC50 (Cortisol)) was above 1000 nM.
For `CCOC(=O)c1nnn([C@H](C)c2ccccc2)c1Br` [Compound B100], in data set [1], the ED50 entry was “D (D indicates that the measured ED50 is in the range of 2.00-10.00 mg/kg (excluding 2.00 mg/kg, including 10.00 mg/kg))”; the Approximate therapeutic index is reported as above 2; the Minimal lethal dose is on record as above 18 mg/kg. Further, in data set [2], the “Recovery time after stopping infusion” value was in the range of 15 to 17 min and the Onset time is 5 to 6 min. Further, in [2] (setting [10]), the “Types and incidence … Tongue stretching” value is “stretching(3/6)”; the “Types and incidence … Tremor” value is “Tremor(2/6), Tongue”. In [3], the “Corticosterone as an indicator … of inhibition” value came to 0 and the “Cortisol as an indicator … of inhibition” value amounted to 0. For the same compound, the EC50 in [3] (setting [11]) was above 1000 nM. In addition, the EC50 in [3] (read-out: EC50 (Cortisol)) was above 1000 nM.
Take `C[C@H](c1ccccc1)n1nncc1C(=O)OC1(C)COC1` [Compound B14]: the ED50 in data set [1] (Rattus norvegicus) lay in the range of 1 to 2 mg/kg. Further, in [1], the Approximate therapeutic index is recorded as above 5 and the Minimal lethal dose is recorded as above 7 mg/kg. Also, the “Types and incidence … Tremor” value in data set [2] (setting [10]) was “Tremor(3/6)”. Also, the Onset time in data set [2] fell in the range of 5 to 6 min. Moreover, in [3], the “Corticosterone as an indicator … of inhibition” value is 0 and the “Cortisol as an indicator … of inhibition” value is reported as 0. Besides, the EC50 in [3] (setting [13]) was above 1000 nM. The EC50 in data set [3] (setting [14]) is above 1000 nM.
In the case of `C=C=CC1(OC(=O)c2cnnn2[C@H](C)c2ccccc2)COC1` [Compound B3], the ED50 in data set [1] (Rattus norvegicus) fell in the range of 0.04 to 0.5 mg/kg. Moreover, in [1], the Approximate therapeutic index is recorded as above 32 and the Minimal lethal dose is recorded as above 6 mg/kg. In data set [2], the “Recovery time after stopping infusion” value was 15 to 16 min and the Onset time is 3 to 4 min. For the same compound, in data set [2] (setting [10]), the “Types and incidence … Tongue stretching” value is “stretching(3/6)”; the “Types and incidence … Tremor” value is reported as “Tremor(4/6), Tongue”. For the same compound, in [3], the “Corticosterone as an indicator … of inhibition” value is listed as 0 and the “Cortisol as an indicator … of inhibition” value was determined as 0. Besides, in [3] (setting [13]), the EC50 is above 1000 nM. In data set [3] (setting [14]), the EC50 is above 1000 nM.
